The numbers were not newly measured in PMC2796340 (Journal of the American Chemical Society, 2009), which cites them from elsewhere.

This data set deals with T1, Gal80 (Saccharomyces cerevisiae, UniProt P04387).
T1 sequence (P04387 1-435): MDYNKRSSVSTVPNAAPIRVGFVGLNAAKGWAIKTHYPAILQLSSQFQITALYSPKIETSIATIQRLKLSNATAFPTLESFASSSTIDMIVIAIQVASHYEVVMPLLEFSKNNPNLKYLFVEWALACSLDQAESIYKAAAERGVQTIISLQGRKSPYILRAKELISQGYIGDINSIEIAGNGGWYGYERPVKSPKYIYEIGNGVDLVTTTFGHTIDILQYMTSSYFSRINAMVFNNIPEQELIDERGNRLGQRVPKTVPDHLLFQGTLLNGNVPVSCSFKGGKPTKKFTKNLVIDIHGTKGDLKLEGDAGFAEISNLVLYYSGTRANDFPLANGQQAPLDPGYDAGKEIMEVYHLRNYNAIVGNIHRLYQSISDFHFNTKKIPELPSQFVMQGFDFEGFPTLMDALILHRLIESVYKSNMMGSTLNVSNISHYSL
Conditions: synthetic Gal4 activation domain peptide; ref [20].

In the case of “MDQTAYNAFGITTGMFNTTTMD DVYNYLFDDEDT [Gal4 AD]”, the “binding to the Gal80 repressor site” value is reported as “binds the Gal80 repressor site with high affinity”.
